{"source": "paper PMC2885440", "about": "(Journal of natural products, 2010)", "assay": "Relative polarity on C12 reversed-phase HPLC", "assay_type": "physicochemical", "details": "C12 reversed-phase HPLC (Jupiter Proteo C12), linear gradient 50–80% MeOH in 0.05% TFA in 50 min", "data": [{"substance": "Lys-Ala-Leu1-Leu2-Trp (lariat or depsi) [Paltolide A]", "values": [{"measurement": "polarity among compounds 1–6", "result": "most polar"}]}]}
